# US20260347319A1, “YAP/TAZ-TEAD ONCOPROTEINS INHIBITORS” (BridGene Biosciences, Inc., priority 2022, published 2026)
# Tested on: TEAD1
# Assay: MCF-7 TEAD1-luciferase reporter assay (MCF7-TEAD-Luc)
# Format: cell-based
# Details: MCF7 cells, overnight; for IC50: Homo sapiens; for TEAD1-Luc MCF7: Max Inhibition: % of DMSO-treated control
# Method: The ability of compounds to inhibit TEAD-dependent transcription was assessed in the MCF7-TEAD-Luc reporter assay (BPS #60618). Cells were seeded at 10,000 cells in 200 μL per well into white wall, clear bottom 96-well plates (Corning #3610) and incubated at 37° C. for 24 hours, then treated with serial diluted compounds overnight, and luciferase signal was measured using the ONE-Step Luciferase Assay System (BPS #60690) using an EnSight Multimode plate reader (PerkinElmer, model #MLDHH34000000, integration time 100 ms) with Kaleido 3.0. software. For data analysis, dose-dependent curves were plotted as “% inhibition” (% of DMSO-treated control wells), and were fitted by four-parametric model in GraphPad Prism to obtain IC50 values.
IC50,SMILES,TEAD1-Luc MCF7: Max Inhibition
10 to 100 nM,"C=CC(=O)N1CC[C@@H](/C=C/Cc2ccc(C(F)(F)F)cc2)C1 (single isomer, unassigned) [Example 93]",B (75% > B ≥ 50%)
10 to 100 nM,"C=CC(=O)N1CC[C@H](/C=C/Cc2ccc(C(F)(F)F)cc2)C1 (single isomer, unassigned) [Example 94]",B (75% > B ≥ 50%)
100 to 500 nM,"C=CC(=O)N1CCC2(C=C(c3ccc(C(F)(F)F)cc3)CC2)C1 (single isomer, unassigned) [Example 95, 1-(7-(4-(trifluoromethyl)phenyl)-2-azaspiro[4.4]non-6-en-2-yl)prop-2-en-1-one]",B (75% > B ≥ 50%)
10 to 100 nM,"C=CC(=O)N1CCC2(CC=C(c3ccc(C(F)(F)F)cc3)C2)C1 (single isomer, unassigned) [Example 96, 1-(7-(4-(trifluoromethyl)phenyl)-2-azaspiro[4.4]non-7-en-2-yl) prop-2-en-1-one]",B (75% > B ≥ 50%)
100 to 500 nM,"C=CC(=O)N1CCC2(C=C(c3ccc(C(F)(F)F)cc3)CO2)C1 (single isomer, unassigned) [Example 97, 1-(3-(4-(trifluoromethyl)phenyl)-1-oxa-7-azaspiro[4.4]non-3-en-7-yl)prop-2-en-1-one]",C (50% > C ≥ 2%)
> 500 nM,"C=CC(=O)N1CCC2(CC(c3ccc(C(F)(F)F)cc3)=CO2)C1 (single isomer, unassigned) [Example 98, 1-(3-(4-(trifluoromethyl)phenyl)-1-oxa-7-azaspiro[4.4]non-2-en-7-yl)prop-2-en-1-one]",C (50% > C ≥ 2%)
100 to 500 nM,"C=CC(=O)N1CC[C@H]([C@@H](O)/C=C/c2ccc(C(F)(F)F)cc2)C1 (single isomer, unassigned) [Example 103]",B (75% > B ≥ 50%)
100 to 500 nM,"C=CC(=O)N1CC[C@H]([C@H](O)/C=C/c2ccc(C(F)(F)F)cc2)C1 (single isomer, unassigned) [Example 104]",B (75% > B ≥ 50%)
> 500 nM,"C=CC(=O)N1C[C@H](C)[C@@H](/C=C/c2ccc(C(F)(F)F)cc2)C1 (stereo in doubt) [Example 40, 1-[(3R*,4R*)-3-methyl-4-{2-[4-(trifluoromethyl)phenyl]ethenyl}pyrrolidin-1-yl]prop-2-en-1-one]",A (A ≥ 75%)
≤ 10 nM,"C=CC(=O)N1CC(C/C=C/c2cc(C(F)(F)F)on2)C1 [Example 2, 1-{3-[(2E)-3-[5-(trifluoromethyl)-1,2-oxazol-3-yl]prop-2-en-1-yl]azetidin-1-yl}prop-2-en-1-one]",A (A ≥ 75%)
≤ 10 nM,"C=CC(=O)N1CC(/C=C/c2ccc(C(F)(F)F)c(OC)c2)C1 [Example 3, 1-{3-[(E)-2-[3-methoxy-4-(trifluoromethyl)phenyl]ethenyl]azetidin-1-yl}prop-2-en-1-one]",B (75% > B ≥ 50%)
≤ 10 nM,"C=CC(=O)N1CC(/C=C/c2ccc(C(F)(F)F)c(F)c2)C1 [Example 4, 1-{3-[(E)-2-[3-fluoro-4-(trifluoromethyl)phenyl]ethenyl]azetidin-1-yl}prop-2-en-1-one]",A (A ≥ 75%)
10 to 100 nM,C=CC(=O)N1CCC(/C=C/c2ccc(C(F)(F)F)cc2)CC1 [Example 6],B (75% > B ≥ 50%)
≤ 10 nM,"C=CC(=O)N1CC(F)(/C=C/c2cc(C(F)(F)F)on2)C1 [Example 7, (E)-1-(3-fluoro-3-(2-(5-(trifluoromethyl)isoxazol-3-yl)vinyl)azetidin-1-yl)prop-2-en-1-one]",A (A ≥ 75%)
≤ 10 nM,"C=CC(=O)N1CC(F)(/C=C\c2cc(C(F)(F)F)on2)C1 [Example 8, (Z)-1-(3-fluoro-3-(2-(5-(trifluoromethyl)isoxazol-3-yl)vinyl)azetidin-1-yl)prop-2-en-1-one]",A (A ≥ 75%)
≤ 10 nM,"C=CC(=O)N1CC(C)(/C=C/c2cc(C(F)(F)F)on2)C1 [Example 16, 1-(3-methyl-3-(2-(5-(trifluoromethyl)isoxazol-3-yl)vinyl)azetidin-1-yl)prop-2-en-1-one]",A (A ≥ 75%)
≤ 10 nM,C=CC(=O)N1CC(/C=C/c2ccc(C(F)(F)F)cc2)(OC)C1 [Example 17],B (75% > B ≥ 50%)
≤ 10 nM,C=CC(=O)N1CC(C)(/C=C/c2ccc(C(F)(F)F)cc2)C1 [Example 18],A (A ≥ 75%)

IC50,SMILES,TEAD1-Luc MCF7: Max Inhibition
10 to 100 nM,"C=CC(=O)N1CC(/C=C/c2ccc(C(F)(F)F)cc2OC)C1 [Example 19, 1-(3-(2-methoxy-4-(trifluoromethyl)styryl)azetidin-1-yl)prop-2-en-1-one]",C (50% > C ≥ 2%)
100 to 500 nM,C=CC(=O)N1CC2(CC(/C=C/c3ccc(C(F)(F)F)cc3)C2)C1 [Example 20],B (75% > B ≥ 50%)
10 to 100 nM,"C=CC(=O)N1CC2(CC(/C=C/c3cc(C(F)(F)F)on3)C2)C1 [Example 22, 1-{6-[(E)-2-[5-(trifluoromethyl)-1,2-oxazol-3-yl]ethenyl]-2-azaspiro[3.3]heptan-2-yl}prop-2-en-1-one]",B (75% > B ≥ 50%)
10 to 100 nM,"C=CC(=O)N1CC2(CC(/C=C\c3cc(C(F)(F)F)on3)C2)C1 [Example 23, 1-{6-[(Z)-2-[5-(trifluoromethyl)-1,2-oxazol-3-yl]ethenyl]-2-azaspiro[3.3]heptan-2-yl}prop-2-en-1-one]",B (75% > B ≥ 50%)
> 500 nM,"C=CC(=O)N1CC2(CCC(/C=C/c3cc(C(F)(F)F)on3)CC2)C1 [Example 24, 1-{7-[(E)-2-[5-(trifluoromethyl)-1,2-oxazol-3-yl]ethenyl]-2-azaspiro[3.5]nonan-2-yl}prop-2-en-1-one]",C (50% > C ≥ 2%)
100 to 500 nM,"C=CC(=O)N1CC2(CCC(/C=C\c3cc(C(F)(F)F)on3)CC2)C1 [Example 25, 1-{7-[(Z)-2-[5-(trifluoromethyl)-1,2-oxazol-3-yl]ethenyl]-2-azaspiro[3.5]nonan-2-yl}prop-2-en-1-one]",B (75% > B ≥ 50%)
10 to 100 nM,"C=CC(=O)N1CC(/C=C\c2cc(C(F)(F)F)on2)C1 [Example 26, 1-{3-[(Z)-2-[5-(trifluoromethyl)-1,2-oxazol-3-yl]ethenyl]azetidin-1-yl}prop-2-en-1-one]",B (75% > B ≥ 50%)
100 to 500 nM,"C=CC(=O)N1C[C@@H](CC)[C@H](/C=C\c2ccc(C(F)(F)F)cc2)C1 [Example 31, 1-{3-ethyl-4-[(Z)-2-[4-(trifluoromethyl)phenyl]ethenyl]pyrrolidin-1-yl}prop-2-en-1-one]",A (A ≥ 75%)
100 to 500 nM,"C=CC(=O)N1C[C@@H](CC)[C@H](/C=C/c2ccc(C(F)(F)F)cc2)C1 [Example 32, 1-{3-ethyl-4-[(E)-2-[4-(trifluoromethyl)phenyl]ethenyl]pyrrolidin-1-yl}prop-2-en-1-one]",A (A ≥ 75%)
10 to 100 nM,"C=CC(=O)N1CCC(/C=C/c2ccc(C(F)(F)F)cc2)(OC)C1 (stereo not drawn) [Example 35, (E)-1-(3-methoxy-3-(4-(trifluoromethyl)styryl)pyrrolidin-1-yl)prop-2-en-1-one]",A (A ≥ 75%)
10 to 100 nM,C=CC(=O)N1CC(C#N)(/C=C/c2ccc(C(F)(F)F)cc2)C1 [Example 37],A (A ≥ 75%)
10 to 100 nM,"C=CC(=O)N1CC2(CC=C(c3ccc(C(F)(F)F)cc3)CC2)C1 [Example 46, 1-(7-(4-(trifluoromethyl)phenyl)-2-azaspiro[3.5]non-6-en-2-yl)prop-2-en-1-one]",B (75% > B ≥ 50%)
≤ 10 nM,"C=CC(=O)N1CC2(C=C(c3ccc(C(F)(F)F)cc3)CC2)C1 [Example 47, 1-(6-(4-(trifluoromethyl)phenyl)-2-azaspiro[3.4]oct-5-en-2-yl)prop-2-en-1-one]",C (50% > C ≥ 2%)
100 to 500 nM,"C=CC(=O)N1CC2(CC=C(c3ccc(C(F)(F)F)cc3)C2)C1 [Example 48, 1-(6-(4-(trifluoromethyl)phenyl)-2-azaspiro[3.4]oct-6-en-2-yl)prop-2-en-1-one]",B (75% > B ≥ 50%)
100 to 500 nM,"C=CC(=O)N1CC(c2cc3ccc(C(F)(F)F)cc3o2)C1 [Example 49, 1-{3-[6-(trifluoromethyl)-1-benzofuran-2-yl]azetidin-1-yl}prop-2-en-1-one]",B (75% > B ≥ 50%)
≤ 10 nM,"C=CC(=O)N1CC(c2cc3cc(C(F)(F)F)ccn3n2)C1 [Example 50, 1-(3-(5-(trifluoromethyl)pyrazolo[1,5-a]pyridin-2-yl)azetidin-1-yl)prop-2-en-1-one]",B (75% > B ≥ 50%)
10 to 100 nM,"C=CC(=O)N1CC(c2cc3ccc(C(F)(F)F)cn3n2)C1 [Example 51, 1-(3-(6-(trifluoromethyl)pyrazolo[1,5-a]pyridin-2-yl)azetidin-1-yl)prop-2-en-1-one]",B (75% > B ≥ 50%)
10 to 100 nM,"C=CC(=O)N1CC(c2cc3ccc(C(F)(F)F)cc3[nH]2)C1 [Example 52, 1-{3-[6-(trifluoromethyl)-1H-indol-2-yl]azetidin-1-yl}prop-2-en-1-one]",A (A ≥ 75%)
